What all share (experiment): relative viability (nuclei count vs DMSO), 5 days (fraction); higher = more cells survive
Compound in one test: CC1=CC(=C(N1C2=CC=C(C=C2)Cl)C)C(=O)CN3CCCCC3 [IU1-47]
The procedure, abridged: (§1)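 Viability was defined as treated-well nuclei divided by vehicle-well nuclei, with the median taken over replicate plates. Cells from lung cancer lines sat overnight at 37 °C in 1536-well plates, received five √10-spaced library-drug doses by pinning on vehicle-anchored plates, and grew 5 days without medium change before one-step fixation, permeabilisation and Hoechst staining, 4× imaging and MetaXpress nuclear counts. Only plates with control CV under 25% and at least one doubling were kept.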

Compound in the next test: Cc1nc(C(=O)NCC(=O)O)c(O)c2ccc(Oc3ccccc3)cc12 [FG-4592]
The procedure, abridged:
as §1

Compound in the test “IU1-47 + Alpelisib”: CC1=CC(=C(N1C2=CC=C(C=C2)Cl)C)C(=O)CN3CCCCC3 [IU1-47] + Cc1nc(NC(=O)N2CCC[C@H]2C(N)=O)sc1-c1ccnc(C(C)(C)C(F)(F)F)c1 [Alpelisib] (partner 2 µM)
The procedure, abridged: (§2)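 Lung cancer cell lines in 1536-well plates got either a single drug or a fixed anchor-drug dose together with five library-drug doses (not always all listed) in √10 steps, by pin tool, on the day after seeding. Nuclei were counted after 5 days, and relative viability is the treated-to-vehicle ratio of nuclei counts. Values are medians of duplicate plates.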

Compound in the test “FG-4592 + Pemetrexed”: Cc1nc(C(=O)NCC(=O)O)c(O)c2ccc(Oc3ccccc3)cc12 [FG-4592] + Nc1nc2[nH]cc(CCc3ccc(C(=O)N[C@@H](CCC(=O)O)C(=O)O)cc3)c2c(=O)[nH]1 [Pemetrexed] (partner 0.2 µM)
The procedure, abridged:
as §2

HCC-44: the relative viability in the test with IU1-47 (0.08 µM) stood at 0.964; in the test with IU1-47 (0.253 µM), 1.03; with IU1-47 (0.8 µM), 1.03; with IU1-47 (2.53 µM), 0.945; in the test with IU1-47 (8 µM), 1.02; in the test with FG-4592 (0.08 µM), 1.01. Besides, the relative viability stood at 0.939 with FG-4592 (0.253 µM); 0.806 in the test with FG-4592 (0.8 µM); 1.05 in the test with FG-4592 (2.53 µM); 1.04 with FG-4592 (8 µM); 0.942 with IU1-47 + Alpelisib (first compound 0.08 µM); 0.822 with IU1-47 + Alpelisib (first compound 0.253 µM). Further, the relative viability with IU1-47 + Alpelisib (first compound 0.8 µM) came to 0.783; with IU1-47 + Alpelisib (first compound 2.53 µM) it was 0.825; with IU1-47 + Alpelisib (first compound 8 µM), 0.78; with FG-4592 + Pemetrexed (first compound 0.08 µM) it was 0.615; with FG-4592 + Pemetrexed (first compound 0.253 µM), 0.652; with FG-4592 + Pemetrexed (first compound 0.8 µM) it was 0.705. The results for the relative viability in the test with FG-4592 + Pemetrexed (first compound 2.53 µM) and with FG-4592 + Pemetrexed (first compound 8 µM) were 0.688 and 0.725, respectively.
As for HCC-78, the relative viability stood at 0.97 with IU1-47 (0.08 µM); 0.953 with IU1-47 (0.253 µM); 1.03 in the test with IU1-47 (0.8 µM); 0.874 with IU1-47 (2.53 µM); 0.889 in the test with IU1-47 (8 µM); 0.893 with FG-4592 (0.08 µM). In addition, the relative viability with FG-4592 (0.253 µM) turned out to be 0.746; with FG-4592 (0.8 µM) it was 0.972; with FG-4592 (2.53 µM), 0.916; with FG-4592 (8 µM) it was 1.01; in the test with IU1-47 + Alpelisib (first compound 0.08 µM) it was 0.387; in the test with IU1-47 + Alpelisib (first compound 0.253 µM), 0.319. In addition, the relative viability in the test with IU1-47 + Alpelisib (first compound 0.8 µM) turned out to be 0.391; with IU1-47 + Alpelisib (first compound 2.53 µM) it was 0.327; with IU1-47 + Alpelisib (first compound 8 µM), 0.294; with FG-4592 + Pemetrexed (first compound 0.08 µM), 0.941; with FG-4592 + Pemetrexed (first compound 0.8 µM), 0.901; with FG-4592 + Pemetrexed (first compound 2.53 µM), 0.871. The relative viability in the test with FG-4592 + Pemetrexed (first compound 8 µM) came out at 0.909.
For HCC-366, the relative viability with IU1-47 (0.08 µM) stood at 1.03; with IU1-47 (0.253 µM), 0.969; with IU1-47 (0.8 µM), 1.04; with IU1-47 (2.53 µM) it was 1.04; with IU1-47 (8 µM), 0.879; with FG-4592 (0.08 µM), 0.798. The relative viability is 1 with FG-4592 (0.253 µM); 1.02 with FG-4592 (0.8 µM); 0.964 with FG-4592 (2.53 µM); 1.05 in the test with FG-4592 (8 µM); 0.479 with IU1-47 + Alpelisib (first compound 0.08 µM); 0.424 with IU1-47 + Alpelisib (first compound 0.253 µM). For the same cell line, the relative viability with IU1-47 + Alpelisib (first compound 0.8 µM) was found to be 0.524; in the test with IU1-47 + Alpelisib (first compound 8 µM) it was 0.231; with FG-4592 + Pemetrexed (first compound 0.08 µM), 0.182; in the test with FG-4592 + Pemetrexed (first compound 0.253 µM), 0.148; in the test with FG-4592 + Pemetrexed (first compound 0.8 µM), 0.242; with FG-4592 + Pemetrexed (first compound 2.53 µM) it was 0.181. Further, in the test with FG-4592 + Pemetrexed (first compound 8 µM), the relative viability was found to be 0.258.
For the cell line HCC-827, the relative viability in the test with IU1-47 (0.08 µM) was 1.09; with IU1-47 (0.253 µM), 1.05; with IU1-47 (0.8 µM) it was 1.05; with IU1-47 (2.53 µM) it was 1.08; with IU1-47 (8 µM), 1.09; with FG-4592 (0.08 µM), 1.03. Besides, the relative viability with FG-4592 (0.253 µM) amounted to 0.988; with FG-4592 (0.8 µM) it was 1.02; with FG-4592 (2.53 µM), 1.02; with FG-4592 (8 µM), 1.03; in the test with IU1-47 + Alpelisib (first compound 0.08 µM), 1.08; in the test with IU1-47 + Alpelisib (first compound 0.253 µM), 1.05. Moreover, the relative viability in the test with IU1-47 + Alpelisib (first compound 0.8 µM) was found to be 0.91; with IU1-47 + Alpelisib (first compound 2.53 µM), 1.1; with IU1-47 + Alpelisib (first compound 8 µM), 0.905; with FG-4592 + Pemetrexed (first compound 0.08 µM) it was 0.232; with FG-4592 + Pemetrexed (first compound 0.253 µM) it was 0.255; in the test with FG-4592 + Pemetrexed (first compound 0.8 µM), 0.235. The relative viability with FG-4592 + Pemetrexed (first compound 2.53 µM) came out at 0.26; with FG-4592 + Pemetrexed (first compound 8 µM) it was 0.255.
Consider HOP-62, for which the relative viability with IU1-47 (0.08 µM) turned out to be 1.09; with IU1-47 (0.253 µM) it was 1.05; with IU1-47 (0.8 µM), 1.09; in the test with IU1-47 (2.53 µM), 0.779; with IU1-47 (8 µM), 1.09; in the test with FG-4592 (0.08 µM), 0.997. For the same cell line, the relative viability came out at 0.957 with FG-4592 (0.253 µM); 0.943 with FG-4592 (0.8 µM); 0.96 with FG-4592 (2.53 µM); 1.01 with FG-4592 (8 µM); 1.16 in the test with IU1-47 + Alpelisib (first compound 0.08 µM); 1.21 with IU1-47 + Alpelisib (first compound 0.253 µM). The relative viability with IU1-47 + Alpelisib (first compound 0.8 µM) was determined as 1.05; with IU1-47 + Alpelisib (first compound 2.53 µM), 1.11; in the test with IU1-47 + Alpelisib (first compound 8 µM), 1.01; with FG-4592 + Pemetrexed (first compound 0.08 µM), 0.287; in the test with FG-4592 + Pemetrexed (first compound 0.253 µM), 0.317; with FG-4592 + Pemetrexed (first compound 0.8 µM), 0.35. The relative viability with FG-4592 + Pemetrexed (first compound 2.53 µM) came out at 0.304; with FG-4592 + Pemetrexed (first compound 8 µM), 0.324.
As to LC-2-ad, the relative viability with IU1-47 (0.08 µM) stood at 0.981; in the test with IU1-47 (0.253 µM), 0.997; with IU1-47 (0.8 µM) it was 1.07; in the test with IU1-47 (2.53 µM), 0.673; with IU1-47 (8 µM) it was 0.889; with FG-4592 (0.08 µM) it was 0.997. The relative viability in the test with FG-4592 (0.253 µM) was found to be 0.924; in the test with FG-4592 (0.8 µM), 0.973; in the test with FG-4592 (2.53 µM) it was 0.925; with FG-4592 (8 µM), 1.09; with IU1-47 + Alpelisib (first compound 0.08 µM), 0.897; in the test with IU1-47 + Alpelisib (first compound 0.253 µM), 0.951. The relative viability with IU1-47 + Alpelisib (first compound 0.8 µM) was 0.919; with IU1-47 + Alpelisib (first compound 2.53 µM), 0.973; with IU1-47 + Alpelisib (first compound 8 µM) it was 0.767; in the test with FG-4592 + Pemetrexed (first compound 0.08 µM) it was 0.29; with FG-4592 + Pemetrexed (first compound 0.253 µM), 0.29; with FG-4592 + Pemetrexed (first compound 0.8 µM), 0.269. Besides, the relative viability in the test with FG-4592 + Pemetrexed (first compound 2.53 µM) came to 0.26; with FG-4592 + Pemetrexed (first compound 8 µM) it was 0.288.
Take LCLC-97TM1: the relative viability is 0.954 with IU1-47 (0.08 µM); 1.22 in the test with IU1-47 (0.253 µM); 1.06 with IU1-47 (0.8 µM); 0.589 with IU1-47 (2.53 µM); 0.834 with IU1-47 (8 µM); 0.918 with FG-4592 (0.08 µM). Besides, the relative viability with FG-4592 (0.253 µM) was 0.901; with FG-4592 (0.8 µM), 0.791; in the test with FG-4592 (2.53 µM), 0.924; with FG-4592 (8 µM), 0.873; in the test with IU1-47 + Alpelisib (first compound 0.08 µM), 0.276; with IU1-47 + Alpelisib (first compound 0.253 µM), 0.248. Besides, the relative viability with IU1-47 + Alpelisib (first compound 0.8 µM) came out at 0.249; with IU1-47 + Alpelisib (first compound 8 µM), 0.242; with FG-4592 + Pemetrexed (first compound 0.08 µM), 0.189; with FG-4592 + Pemetrexed (first compound 0.253 µM), 0.152; with FG-4592 + Pemetrexed (first compound 2.53 µM) it was 0.145; with FG-4592 + Pemetrexed (first compound 8 µM), 0.171.

The values above are taken from the supplement of paper PMC10307832.
